Read-outs that look alike come from different tables or passages of the source. *1 amine or outer side, *2 acyl side, *3 side chain or, on linkers, in order; H or OH if unused. Where a SMILES comes first, the peptide text is derived from it. Side-chain parts run from the residue outwards. [ ]: non-standard residue; d: D form. The star is where a group is joined. αMePhe(2-F) = C[C@](N)(Cc1ccccc1F)C(=O)O; γGlu = O=C(O)[C@H](CCC(=O)[*:2])N[*:1]; C14 diacid = O=C(O)CCCCCCCCCCCCC(=O)*; αMeY = C[C@](N)(Cc1ccc(O)cc1)C(=O)O; 4Pal = N[C@@H](Cc1ccncc1)C(=O)O; αMeL = CC(C)C[C@](C)(N)C(=O)O; Orn = NCCC[C@H](N)C(=O)O; AEEA = NCCOCCOCC(=O)O; Aib = CC(C)(N)C(=O)O
Columns and labels:
Type in all cases: cell-based
hGLP-1R = hGLP-1R (Homo sapiens, UniProt P43220); assay: Functional cAMP formation (HTRF) in HEK-293 clonal cells expressing hGLP-1R, 0.1% bovine casein, without or with 1.0% human serum albumin; parameters: expressed in transfected cells; details: for EC50: geometric mean
How it was run: (§1)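 Readings of the HTRF 665/620 nm ratio, which falls as cAMP rises, were converted to nM cAMP using a standard curve after 30 min peptide exposure at 37° C.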

hGIPR = molecular target: T1, hGIPR (Homo sapiens, UniProt P48546); assay: Functional cAMP formation (HTRF) in HEK-293 clonal cells expressing hGIPR, 0.1% bovine casein, without or with 1.0% human serum albumin
T1 construct: expressed in transfected cells
T1 sequence (P48546 22-466): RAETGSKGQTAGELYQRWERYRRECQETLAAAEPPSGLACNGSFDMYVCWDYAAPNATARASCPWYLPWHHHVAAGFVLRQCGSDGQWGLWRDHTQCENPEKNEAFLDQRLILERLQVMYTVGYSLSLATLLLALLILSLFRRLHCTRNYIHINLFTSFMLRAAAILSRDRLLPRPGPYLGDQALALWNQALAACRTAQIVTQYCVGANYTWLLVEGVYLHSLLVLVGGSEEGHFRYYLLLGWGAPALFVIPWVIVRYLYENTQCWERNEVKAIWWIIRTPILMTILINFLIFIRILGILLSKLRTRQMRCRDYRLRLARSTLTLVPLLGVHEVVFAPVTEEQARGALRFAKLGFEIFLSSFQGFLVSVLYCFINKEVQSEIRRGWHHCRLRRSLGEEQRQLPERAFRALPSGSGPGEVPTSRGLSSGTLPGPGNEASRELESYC
How it was run: as §1

hGCGR = molecular target: T2, hGCGR (Homo sapiens, UniProt P47871); assay: Functional cAMP formation (HTRF) in HEK-293 clonal cells expressing hGCGR, 0.1% bovine casein, without or with 1.0% human serum albumin
T2 construct: expressed in transfected cells
How it was run: as §1

[1] = 0.1% bovine casein and 1.0% human serum albumin, 37° C., read-out: hGLP-1R EC50, nM (SEM, n)
[2] = HEK293, percent of maximal response to GLP-1(7-36)NH2, 37° C., 0.1% bovine casein, arithmetic mean, read-out: hGLP-1R Emax, % ± SEM
[3] = cAMP, incubated at 37° C., 0.1% bovine casein (no human serum albumin), read-out: hGLP-1R EC50, nM (SEM, n)
[4] = 0.1% bovine casein and 1.0% human serum albumin, 37° C., geometric mean, read-out: hGIPR EC50, nM (SEM, n)
[5] = HEK293, 0.1% bovine casein and 1.0% human serum albumin, 37° C., percent of maximal response to GIP(1-42)NH2, read-out: hGIPR Emax, % ± SEM
[6] = HEK293, percent of maximal response to GIP(1-42)NH2, 37° C., 0.1% bovine casein, arithmetic mean, read-out: hGIPR Emax, % ± SEM
[7] = cAMP, incubated at 37° C., 0.1% bovine casein (no human serum albumin), geometric mean, read-out: hGIPR EC50, nM (SEM, n)
[8] = 0.1% bovine casein and 1.0% human serum albumin, 37° C., geometric mean, read-out: hGCGR EC50, nM (SEM, n)
[9] = cAMP, incubated at 37° C., 0.1% bovine casein (no human serum albumin), geometric mean, read-out: hGCGR EC50, nM (SEM, n)
[10] = HEK293, 0.1% bovine casein and 1.0% human serum albumin, 37° C., percent of maximal response to GLP-1(7-36)NH2, read-out: hGLP-1R Emax, % ± SEM

T2 sequence (P47871 26-477): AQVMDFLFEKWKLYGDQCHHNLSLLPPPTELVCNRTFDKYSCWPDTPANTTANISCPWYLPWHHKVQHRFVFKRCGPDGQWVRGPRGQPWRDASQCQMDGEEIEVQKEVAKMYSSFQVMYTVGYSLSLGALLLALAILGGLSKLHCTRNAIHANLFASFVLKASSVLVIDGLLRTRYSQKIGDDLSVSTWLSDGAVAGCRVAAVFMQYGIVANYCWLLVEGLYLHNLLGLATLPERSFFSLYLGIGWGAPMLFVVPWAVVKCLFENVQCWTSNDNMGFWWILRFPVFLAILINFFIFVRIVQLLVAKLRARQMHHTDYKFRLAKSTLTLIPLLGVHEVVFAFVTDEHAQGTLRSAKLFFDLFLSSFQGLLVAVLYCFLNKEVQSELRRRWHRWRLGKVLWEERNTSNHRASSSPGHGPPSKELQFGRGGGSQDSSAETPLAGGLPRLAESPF
Chain of hGLP-1R (P43220 24-463): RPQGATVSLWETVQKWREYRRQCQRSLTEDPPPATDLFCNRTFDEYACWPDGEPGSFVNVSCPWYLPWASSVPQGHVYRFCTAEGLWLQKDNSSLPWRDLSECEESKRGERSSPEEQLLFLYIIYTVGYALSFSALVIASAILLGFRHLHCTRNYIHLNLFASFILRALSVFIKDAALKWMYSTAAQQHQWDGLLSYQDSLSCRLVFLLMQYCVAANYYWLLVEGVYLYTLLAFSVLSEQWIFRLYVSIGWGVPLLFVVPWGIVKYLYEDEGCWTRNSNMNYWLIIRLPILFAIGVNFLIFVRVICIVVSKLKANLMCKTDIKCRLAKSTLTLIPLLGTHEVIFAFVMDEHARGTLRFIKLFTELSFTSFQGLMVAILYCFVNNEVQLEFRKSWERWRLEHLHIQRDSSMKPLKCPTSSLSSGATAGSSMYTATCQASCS

Row | Structure (SMILES) | EC50 (hGLP-1R; [1]) [nM] | Emax (hGLP-1R; [2]) [%] | EC50 (hGLP-1R; [3]) [nM] | EC50 (hGIPR; [4]) [nM] | Emax (hGIPR; [5]) [%] | Emax (hGIPR; [6]) [%] | EC50 (hGIPR; [7]) [nM] | EC50 (hGCGR; [8]) [nM] | EC50 (hGCGR; [9]) [nM] | Emax (hGLP-1R; HEK293, read-out: hGLP-1R Emax, % ± SEM, cAMP, 37° C., 0.1% bovine casein and 1.0% human serum albumin, percent of maximal response to GLP-1(7-36)NH2) [%] | Emax (hGLP-1R; HEK293, read-out: hGLP-1R Emax, % ± SEM, cAMP, 37° C., 0.1% bovine casein, percent of maximal response to GLP-1(7-36)NH2, arithmetic mean) [%] | EC50 (hGLP-1R; hGLP-1R EC50, nM (SEM, n), cAMP, 37° C., 0.1% bovine casein (no human serum albumin)) [nM] | Emax (hGIPR; HEK293, read-out: hGIPR Emax, % ± SEM, cAMP, 37° C., 0.1% bovine casein and 1.0% human serum albumin, percent of maximal response to GIP(1-42)NH2) [%] | EC50 (hGIPR; hGIPR EC50, nM (SEM, n), cAMP, 37° C., 0.1% bovine casein (no human serum albumin), geometric mean) [nM] | EC50 (hGIPR; hGIPR EC50, nM (SEM, n), cAMP, 37° C., 0.1% bovine casein and 1.0% human serum albumin, geometric mean (SEM, n)) [nM] | EC50 (hGCGR; hGCGR EC50, nM (SEM, n), cAMP, 37° C., 0.1% bovine casein (no human serum albumin), geometric mean) [nM] | EC50 (hGCGR; hGCGR EC50, nM (SEM, n), cAMP, 37° C., 0.1% bovine casein and 1.0% human serum albumin, geometric mean (SEM, n)) [nM] | Emax (hGLP-1R; [10]) [%]
1 | CC[C@H](C)[C@H](NC(=O)[C@H](CC(C)C)NC(=O)[C@](C)(Cc1ccc(O)cc1)NC(=O)[C@@H](CCC(=O)O)NC(=O)[C@@H](NC(=O)[C@H](Cc1ccccc1)NC(=O)[C@H](CCC(=O)O)NC(=O)C(C)(C)NC(=O)[C@H](CCC(N)=O)NC(=O)[C@H](C)NC(=O)[C@H](CCCCNC(=O)COCCOCCNC(=O)COCCOCCNC(=O)CC[C@H](NC(=O)CCCCCCCCCCCCC(=O)O)C(=O)O)NC(=O)[C@H](CCCN)NC(=O)[C@H](CC(=O)O)NC(=O)[C@H](CC(C)C)NC(=O)[C@](C)(CC(C)C)NC(=O)[C@@H](NC(=O)[C@H](CO)NC(=O)[C@H](Cc1ccncc1)NC(=O)[C@H](CC(=O)O)NC(=O)[C@H](CO)NC(=O)[C@@H](NC(=O)[C@](C)(Cc1ccccc1F)NC(=O)[C@@H](NC(=O)CNC(=O)[C@H](CCC(=O)O)NC(=O)C(C)(C)NC(=O)[C@@H](N)Cc1ccc(O)cc1)[C@@H](C)O)[C@@H](C)O)[C@@H](C)CC)[C@@H](C)CC)C(=O)N[C@@H](CCC(=O)O)C(=O)NCC(=O)NCC(=O)N[C@@H](CCCCNC(=O)COCCOCCNC(=O)COCCOCCNC(=O)CC[C@H](NC(=O)CCCCCCCCCCCCC(=O)O)C(=O)O)C(=O)N[C@@H](CO)C(=O)N[C@@H](CO)C(=O)NCC(=O)N[C@@H](CCCN)C(=O)N1CCC[C@H]1C(=O)N1CCC[C@H]1C(=O)N1CCC[C@H]1C(=O)N[C@@H](CCCN)C(N)=O [Example 155] (H-Y[Aib]EGT[αMePhe(2-F)]TSD[4Pal]SI[αMeL]LD[Orn]K([AEEA-AEEA-γGlu-C14 diacid])AQ[Aib]EFI[dE][αMeY]LIEGGK([AEEA-AEEA-γGlu-C14 diacid])SSG[Orn]PPP[Orn]-NH2; N-terminus assumed) | 34.6 | 99 ± 5.16 | 0.912 | 1.25 | 96.5 ± 1.04 | 96.6 ± 7.55 | 0.0309 | > 9950 | > 9950 |  |  |  |  |  |  |  |  | 
2 | CC[C@H](C)[C@H](NC(=O)[C@H](CC(C)C)NC(=O)[C@](C)(Cc1ccc(O)cc1)NC(=O)[C@H](CCCCNC(=O)CCCCCCCNC(=O)COCCOCCNC(=O)CC[C@H](NC(=O)CCCCCCCCCOc1ccc(C(=O)O)cc1)C(=O)O)NC(=O)[C@@H](NC(=O)[C@H](Cc1ccccc1)NC(=O)[C@H](CCCN)NC(=O)C(C)(C)NC(=O)[C@H](CCC(N)=O)NC(=O)[C@H](C)NC(=O)[C@H](CCC(N)=O)NC(=O)[C@H](CCCN)NC(=O)[C@H](CC(=O)O)NC(=O)[C@H](CC(C)C)NC(=O)[C@](C)(CC(C)C)NC(=O)[C@@H](NC(=O)C(C)(C)NC(=O)[C@H](Cc1ccncc1)NC(=O)[C@H](CC(=O)O)NC(=O)[C@H](CO)NC(=O)[C@@H](NC(=O)[C@](C)(Cc1ccccc1F)NC(=O)[C@@H](NC(=O)CNC(=O)[C@H](CCC(=O)O)NC(=O)C(C)(C)NC(=O)[C@@H](N)Cc1ccc(O)cc1)[C@@H](C)O)[C@@H](C)O)[C@@H](C)CC)[C@@H](C)CC)C(=O)N[C@@H](CCCCNC(=O)CCCCCCCNC(=O)COCCOCCNC(=O)CC[C@H](NC(=O)CCCCCCCCCOc1ccc(C(=O)O)cc1)C(=O)O)C(=O)NCC(=O)NCC(=O)N1CCC[C@H]1C(=O)N[C@@H](CO)C(=O)N[C@@H](CO)C(=O)NCC(=O)N[C@@H](C)C(=O)N1CCC[C@H]1C(=O)N1CCC[C@H]1C(=O)N1CCC[C@H]1C(=O)N[C@@H](CO)C(N)=O [Example 456] |  |  |  |  |  |  |  |  |  | 112 | 116 | 0.341 | 94.7 | 0.0236 | 0.878 | > 9950 | > 9950 | 
3 | CC[C@H](C)[C@H](NC(=O)[C@H](CCCN)NC(=O)[C@H](CC(=O)O)NC(=O)[C@H](CC(C)C)NC(=O)[C@](C)(CC(C)C)NC(=O)[C@@H](NC(=O)C(C)(C)NC(=O)[C@H](Cc1ccncc1)NC(=O)[C@H](CC(=O)O)NC(=O)[C@H](CO)NC(=O)[C@@H](NC(=O)[C@](C)(Cc1ccccc1F)NC(=O)[C@@H](NC(=O)CNC(=O)[C@H](CCC(=O)O)NC(=O)C(C)(C)NC(=O)[C@@H](N)Cc1ccc(O)cc1)[C@@H](C)O)[C@@H](C)O)[C@@H](C)CC)C(=O)N[C@@H](C)C(=O)N[C@@H](CCC(N)=O)C(=O)NC(C)(C)C(=O)N[C@@H](CCCCNC(=O)COCCOCCNC(=O)COCCOCCNC(=O)CC[C@H](NC(=O)CCCCCCCCCCCCC(=O)O)C(=O)O)C(=O)N[C@@H](Cc1ccccc1)C(=O)N[C@H](C(=O)N[C@H](CCC(=O)O)C(=O)N[C@@](C)(Cc1ccc(O)cc1)C(=O)N[C@@H](CC(C)C)C(=O)N[C@H](C(=O)N[C@@H](CCCCNC(=O)COCCOCCNC(=O)COCCOCCNC(=O)CC[C@H](NC(=O)CCCCCCCCCCCCC(=O)O)C(=O)O)C(=O)NCC(=O)NCC(=O)N1CCC[C@H]1C(=O)N[C@@H](CO)C(=O)N[C@@H](CO)C(=O)NCC(=O)N[C@@H](C)C(=O)N1CCC[C@H]1C(=O)N1CCC[C@H]1C(=O)N1CCC[C@H]1C(=O)N[C@@H](CO)C(N)=O)[C@@H](C)CC)[C@@H](C)CC [Example 220] | 150 | 87.6 | 0.535 | 11.6 | 83.5 | 91.6 | 0.0237 | > 9950 | > 9950 |  |  |  |  |  |  |  |  | 110
4 | CC[C@H](C)[C@H](NC(=O)CNC(=O)[C@H](Cc1ccncc1)NC(=O)[C@H](CC(=O)O)NC(=O)[C@H](CO)NC(=O)[C@@H](NC(=O)[C@](C)(Cc1ccccc1F)NC(=O)[C@@H](NC(=O)CNC(=O)[C@H](CCC(=O)O)NC(=O)C(C)(C)NC(=O)[C@@H](N)Cc1ccc(O)cc1)[C@@H](C)O)[C@@H](C)O)C(=O)N[C@@](C)(CC(C)C)C(=O)N[C@@H](CC(C)C)C(=O)N[C@@H](CC(=O)O)C(=O)N[C@@H](CCCN)C(=O)N[C@@H](CCCCNC(=O)COCCOCCNC(=O)COCCOCCNC(=O)CC[C@H](NC(=O)CCCCCCCCCCCCC(=O)O)C(=O)O)C(=O)N[C@@H](C)C(=O)N[C@@H](CCC(N)=O)C(=O)NC(C)(C)C(=O)N[C@@H](CCC(=O)O)C(=O)N[C@@H](Cc1ccccc1)C(=O)N[C@H](C(=O)N[C@H](CCC(=O)O)C(=O)N[C@@](C)(Cc1ccc(O)cc1)C(=O)N[C@@H](CC(C)C)C(=O)N[C@H](C(=O)N[C@@H](CCC(=O)O)C(=O)NCC(=O)NCC(=O)N[C@@H](CCCCNC(=O)COCCOCCNC(=O)COCCOCCNC(=O)CC[C@H](NC(=O)CCCCCCCCCCCCC(=O)O)C(=O)O)C(=O)N[C@@H](CO)C(=O)N[C@@H](CO)C(=O)NCC(=O)N[C@@H](C)C(=O)N1CCC[C@H]1C(=O)N1CCC[C@H]1C(=O)N1CCC[C@H]1C(=O)N[C@@H](CO)C(N)=O)[C@@H](C)CC)[C@@H](C)CC [Example 100] (H-Y[Aib]EGT[αMePhe(2-F)]TSD[4Pal]GI[αMeL]LD[Orn]K([AEEA-AEEA-γGlu-C14 diacid])AQ[Aib]EFI[dE][αMeY]LIEGGK([AEEA-AEEA-γGlu-C14 diacid])SSGAPPPS-NH2; N-terminus assumed) |  | 111 | 11.4 |  | 98.3 |  |  | > 9950 | > 9950 |  |  |  |  |  |  |  |  | 123

Source: patent US20230265151A1, “GIP/GLP1 CO-AGONIST COMPOUNDS” (priority 2020, published 2023)
